The values that follow come from patent publication US7273723B2, “Antibiotic-based gene regulation system” (priority 2001, dated 2007).

Format in all cases: cell-based
Experiment [1] concerns ET1 / erythromycin-responsive promoter PETR3. The experiment in a line: SEAP assay in CHO-Triplet42 transfected with PETR3-SEAP (pWW38). To be noted: CHO-Triplet42 + PWW38 (PETR3); antibiotic 2 μg/ml; 48 h. Here is the method: Chinese hamster ovary cells (CHO-K1, ATCC: CCL 61), and HeLa cells (ATCC: CRL-7923) as well as stable cell lines derived thereof were cultured as described before (Fussenegger et al., 1998, Nat. Biotechnol. 16,468-472) in the presence of appropriate antibiotics: G418 400 μg/ml; zeocin 100 μg/ml. Optimized CaPO4 protocols were used for high efficiency transient transfection of all cell lines (Fussenegger et al., 1998. Nat. Biotechnol. 16: 468-472). Transiently transfected cells were routinely analyzed after 48 h for CFP or SEAP expression using fluorescence microscopy and p-nitrophenolphosphate-based light absorbance timecourse, respectively, as described before (Fussenegger et al., 1998, Nat. Biotechnol. 16, 468-472; Berger et al., 1988, Gene 66, 1-10 b). For construction of stable CHO-ET1 and CHO-Triplet42 cell lines, CHO-Ki and CHO-TWIN1108 (Disclosed in PCT application no. 00/65080) were cotransfected with pWW35 and pZeoSV2 (invitrogen). CHO-ET11-SEAP was constructed by cotransfection of pWW38 and pSV2neo (Clontech) into CHO-ET11. The mixed populations were cloned using FACS-mediated single-cell-sorting (FACStar^Plus; Beckton Dickinson). For assessment of dose-response characteristics of PETR3-regulated gene expression, CHO-ET11-SEAP were cultured at cell densities of 50,000/ml for 48 h at various EM concentrations.
Other antibiotics were eluted from antibiotic test discs (Mast Diagnostica GmbH, Reinfeld, Germany, or bioMérieux, Geneva Switzerland) in cell culture medium at 37° C. for 12 h to reach a final concentration of 30 μg/ml. All macrolide antibiotics were used at a 2 μg/ml concentration unless indicated otherwise.
The regulation performance of the EM-based regulation system was compared directly with the widely used TET- and PIP responsive expression concepts. To this end, we have constructed a stable CHO-K1-derived cell line expressing ET1, PIT and tTA (CHO-Triplet42). […] CHO-Triplet42 was transfected with either isogenic (i) PETR3-(pWW38), (ii) a PPIR-(pristinamycin-responsive promoter, pMF172, Fussenegger et al., 2000. supra.), or (iii) a PhCMV*-1-(tetracycline-responsive promoter, pMF111, Fussenegger et al., 2000. supra) driven SEAP expression vector to assess the individual regulation performance of the three antibiotic-responsive gene regulation systems in CHO cells (Table 5).
To analyze the relative regulatory characteristics, we evaluated induction factors (IF; ratio of maximal expression level to antibiotic-repressed expression level).
These repressive effects are still in a range which is tolerable for use in potential medical applications.

Experiment [2] deals with transrepressors MphR(A) or ET4 (MphR(A)-KRAB) / PETRON promoters. In words: Erythromycin-inducible EON system, SEAP assay in transiently cotransfected CHO-K1. To be noted: for SEAP activity [U/L] +Erythromycin [2 μg/ml]: CHO-K1, 48 hrs, title: erythromycin (2 μg/ml). The source says:
The classical ET/PETR system belongs to the “OFF” family of regulation concepts since gene expression is activated upon withdrawal of the regulating antibiotic. However, in some applications such as gene therapy and tissue engineering an “ON” system that is induced upon addition of macrolide antibiotics is more desirable. We therefore constructed a new MphR(A)-based binary EON system which consists of a PETRON promoter and a set of two different transrepressors. Two different PETRON promoters were constructed: PETRON4 consists of an ETR4 (four tandem repetitions of ETR, SEQ ID NO 26) placed downstream of the strong viral SV40 promoter. PETRON8 contains eight tandem repetitions (SEQ ID NO 27) of ETR instead of four.
Transrepressors such as ET4 (SEQ ID NO 10, example 1, FIG. 2), which consists of a protein fusion between MphR(A) and the KRAB silencing domain of the human kox-1 gene (Deuschle et al., 1995, Mol. Cell Biol. 15: 1907-1914) or MphR(A) alone, bind to ETR in front of PSV40 and block transcription of this promoter. Besides sterical transcription blocking, the silencing domain of ET4 can additionally downregulate PSV40 activity.
The ETR4 sequence (SEQ ID NO: 26) was excised from the WEBE Gene vector (custom synthesized by Operon Technologies Inc.) by SfuI and EcoRI and ligated into the corresponding sites of pMF208 (Fussenegger et al., 2000. supra) thus resulting in plasmid pWW55 (FIG. 7) containing the PSV40-ETR4-SEAP cassette. The combination of PSV40 and ETR4 is designated PETRON4. For construction of PETRON8, ETR4 was excised (PmeI/EcoRI) from pWW55 and cloned into pWW55 restricted with (EcoRV/EcoRI) thus resulting in SV40-ETR8-SEAP (pWW56).
ET4, the MphR(A)-KRAB fusion protein was constructed as described in example 1 (SEQ ID NO 10). For expression of MphR(A) pWW29 (SEQ ID NO 4) was used. The stop codon of the original MphR(A) has been mutated in order to allow fusion to the various transactivating and transrepressing domains. Because of the mutation of this stop codon the mphR(A) gene contained in pWW29 is terminated a few bp downstream at the next stop codon encountered in the vector sequence. However, the resulting MphR(A) protein preserves its role as transcriptional repressor in the EON configuration.
The regulation performance of PETRON4 (PSV40-ETR4-SEAP-pA; pWW55) and PETRON8 (PSV40-ETR8-SEAP-pA; pWW56) was assessed in CHO-K1 cells harboring the MphR(A) expression vector pWW29 (PEF1α-E-pA) (Table 7).

Experiment [3] has as its system ET1/PETR3 positive feedback expression unit. In words: Autoregulated pWW46 (PETR3-CFP-IRES-ET1-pA) CFP expression by fluorescence microscopy. The following applies: pWW46 in CHO-K1, HeLa, COS-7 or HEK 293-T cells; erythromycin 2 μg/ml. From the text: These positive feedback regulation vectors that were constructed contain both the cyan fluorescent protein CFP and ET1 in a dicistronic, PETR3-driven configuration.

As to `CC[C@H]1OC(=O)[C@H](C)[C@@H](O[C@H]2C[C@@](C)(OC)[C@@H](O)[C@H](C)O2)[C@H](C)[C@@H](O[C@@H]2O[C@H](C)C[C@H](N(C)C)[C@H]2O)[C@](C)(O)C[C@@H](C)C(=O)[C@H](C)[C@@H](O)[C@]1(C)O` [Erythromycin], the “SEAP activity [U/L]” value in experiment [1] amounted to 3.8 ± 0.4 U/L. Further, the “SEAP activity [U/L] +Erythromycin [2 μg/ml]” value in experiment [2] (PETR-ON4 + ET4) was 35.7 ± 4.7 U/L; in experiment [2] (PETR-ON4 + MphR(A)), 175.7 ± 6.2 U/L; in experiment [2] (PETR-ON8 + ET4), 55.4 ± 1.8 U/L; in experiment [2] (PETR-ON8 + MphR(A)), 81.6 ± 4.3 U/L. Further, the “Induction factor (expression in induced state to expression in repressed state)” value in experiment [2] (PETR-ON4 repressed by MphR(A)) and in experiment [2] (PETR-ON8 repressed by MphR(A)) was about 5 in each case. Further, in experiment [3], the “CFP-expression (fluorescence microscopy)” value is reported as “completely repressed”.
